≈ marks a conversion by molar mass, not a printed value. Read-outs that look alike come from different tables or passages of the source.
Key:
[1] = system: S. typhi clinical isolate; experiment: Minimal inhibitory concentration (MIC), broth dilution; format: cell-based; conditions: Salmonella enterica, TYPHI
A. baumanii = experiment: Minimal bactericidal concentration (MBC); format: cell-based; conditions: Acinetobacter baumannii
Method: (§1) After determining the MIC for the target compounds, the minimal bactericidal concentration (MBC) for each compound that is required to kill each one of the above-mentioned microorganisms was assessed.

E. coli = experiment: Minimal bactericidal concentration (MBC); format: cell-based; conditions: Escherichia coli
Method: as §1

Aciento sensitive = experiment: Minimal bactericidal concentration (MBC); format: cell-based, A. baumanii; conditions: Acinetobacter baumannii
Method: as §1

P. Auriginosa = experiment: Minimal bactericidal concentration (MBC); format: cell-based, P. aeruginosa; conditions: Pseudomonas aeruginosa
Method: as §1

S. typhi = experiment: Minimal bactericidal concentration (MBC); format: cell-based; conditions: Salmonella enterica
Acientobacter sensitive = experiment: Minimal inhibitory concentration (MIC), broth dilution; conditions: Acinetobacter baumannii
S. aureus ATCC 6538 = experiment: as above; conditions: Staphylococcus aureus, ATCC6538
C. albicans MTCC183 = experiment: as above; format: cell-based; conditions: Candida albicans, MTCC183
Excerpt: (§2) In vitro evaluation for antifungal activities regarding target compounds (4a–j) as well as reference drug, was done against C. albicans MTCC183 through the zone inhibition technique using well diffusion agar assay in addition to MIC.

[2] = system: E. faecalis, Acientobacter, P. auriginosa, S. aureus, S. typhi, E. coli, C. albicans; experiment: Average MIC over the nine tested microbial species (SAR); format: cell-based; conditions: for antimicrobial activity (SAR grading): based on MIC average values; for MIC: read-out: Average MIC
Excerpt: Herein, we aimed to study the structure-antimicrobial activity relationship of the newly synthesised N'-benzylidene-3,4-dimethoxybenzohydrazide derivatives based on MIC average values[51]^,[52] as represented in the supplementary data (Table SI1). Thereby, the changes in their antimicrobial potential and spectrum upon structural modifications could be unveiled, thus offering clues for structural changes that are capable of increasing the antimicrobial potential.

[3] = Cytotoxicity on cells using MTT assay; format: cell-based; conditions: African green monkey, Vero cells (normal mammalian cell line)
Method: The newly synthesised compounds were looked deeply into their efficacy using in silico, in vitro, and in vivo approaches. On the other hand, the cytotoxicity assay was performed for the tested compounds using a normal mammalian Vero cell line by the MTT assay[31]^,[32].
Moreover, the cytotoxicity values of the target compounds were determined to calculate their corresponding IC50 values through the MTT assay. The IC50 value indicates the compound’s concentration that is required to inhibit 50% of the target cells.
The MTT (3–(4,5-dimethylthiazol-2-yl)-2,5-diphenyltetrazolium bromide) tetrazolium reduction assay protocol was applied to determine the cytotoxicity of the target compounds (4a–j) on cells.

E. faecalis ATCC 29212 = experiment: Minimal inhibitory concentration (MIC), broth dilution; conditions: Enterococcus faecalis, ATCC29212
A. baumanii ATCC 19606 = experiment: as above; conditions: Acinetobacter baumannii, ATCC19606
Aciento MDR = experiment: as above; conditions: Acinetobacter baumannii
P. aeruginosa ATCC10145 = experiment: as above; conditions: Pseudomonas aeruginosa
E. coli ATCC 25922 = experiment: as above; conditions: Escherichia coli
E. faecalis = experiment: Minimal bactericidal concentration (MBC); format: cell-based; conditions: Enterococcus faecalis
Method: as §1

S. aureus = experiment: Minimal bactericidal concentration (MBC); format: cell-based; conditions: Staphylococcus aureus
Method: as §1

C. albicans [4] = experiment: Agar well diffusion assay (antifungal); format: cell-based; conditions: result in words
Method: The agar well diffusion assay was first done to evaluate the antimicrobial activities of the different target compounds (4a–j) against gram-positive bacteria, gram-negative bacteria, and fungi (Table 1A). […] First, the antibacterial activities were tested against S. aureus ATCC 6538, Acientobacter (A. baumanii) ATCC 19606, S. typhi, E. coli, and P. aeruginosa as examples of the most common gram-positive and gram-negative bacteria, in comparison to vancomycin and ceftriaxone as two reference standards. In addition, the antifungal activities were screened against C. albicans, in comparison to amphotericin as a reference standard. […] The antibacterial activities of some tested compounds (4a, 4b, 4h, and 4e) against gram-positive and gram-negative bacteria by agar well diffusion assay are represented in the supplementary data (Figure SI1).
as §2
A modification of the agar well diffusion method[55] was done to detect the antimicrobial activities of different compounds (4a–j) against gram-positive bacteria, gram-negative bacteria, and fungi. […] The zones of inhibition were measured in cm.

C. albicans [5] = experiment: Minimal bactericidal concentration (MBC); format: cell-based; conditions: Candida albicans
Method: as §1

Row | SMILES | MIC [1] | MBC (E. coli) | MBC (Aciento sensitive) | MBC (P. Auriginosa) | MBC (S. typhi) | MIC (Acientobacter sensitive) | MIC (S. aureus ATCC 6538) | MIC (C. albicans MTCC183) | antimicrobial activity (SAR grading) [2] | MIC [2] | MIC (E. faecalis ATCC 29212) | MIC (A. baumanii ATCC 19606) | MIC (Aciento MDR) | MIC (P. aeruginosa ATCC10145; ATCC10145) | MIC (E. coli ATCC 25922; ATCC25922) | MBC (E. faecalis) | MBC (S. aureus) | further results
1 | CO/N=C(\C(=O)N[C@@H]1C(=O)N2C(C(=O)O)=C(CSc3nc(=O)c(=O)[nH]n3C)CS[C@H]12)c1csc(N)n1 [ceftriaxone, reference compound] | 14.1 µM (≈ 7.81 µg/mL) | 113 µM (≈ 62.5 µg/mL) | 113 µM (≈ 62.5 µg/mL) | 225 µM (≈ 125 µg/mL) | 225 µM (≈ 125 µg/mL) | 14.1 µM (≈ 7.81 µg/mL) | 3.52 µM (≈ 1.95 µg/mL) |  |  |  |  |  |  |  |  |  |  | MBC (A. baumanii): 113 µM (≈ 62.5 µg/mL)
2 | COc1ccc(C(=O)NN=Cc2cc(Cl)cc(Cl)c2O)cc1OC [Compound 4f, N'-(3,5-dichloro-2-hydroxybenzylidene)-3,4-dimethoxybenzohydrazide] | 85 µM (≈ 31.4 µg/mL) |  | 85 µM (≈ 31.4 µg/mL) |  |  | 21.2 µM (≈ 7.83 µg/mL) | 170 µM (≈ 62.7 µg/mL) | 85 µM (≈ 31.4 µg/mL) | moderate antimicrobial activity | 73.2 µM (≈ 27 µg/mL) | 42.4 µM (≈ 15.7 µg/mL) | 42.4 µM (≈ 15.7 µg/mL) | 85 µM (≈ 31.4 µg/mL) | 85 µM (≈ 31.4 µg/mL) | 42.4 µM (≈ 15.7 µg/mL) |  |  | IC50 [3]: 2160 µM
3 | COc1ccc(C(=O)NN=Cc2ccc(NC(C)=O)cc2)cc1OC [Compound 4c, N-(4-((2–(3,4-dimethoxybenzoyl)hydrazono)methyl)phenyl)acetamide] | 183 µM (≈ 62.5 µg/mL) |  |  |  |  | 45.7 µM (≈ 15.6 µg/mL) | 45.7 µM (≈ 15.6 µg/mL) | 91.8 µM (≈ 31.3 µg/mL) | moderate antimicrobial potential | 81.4 µM (≈ 27.8 µg/mL) | 45.7 µM (≈ 15.6 µg/mL) | 91.8 µM (≈ 31.3 µg/mL) | 183 µM (≈ 62.5 µg/mL) | 22.9 µM (≈ 7.81 µg/mL) | 22.9 µM (≈ 7.81 µg/mL) | 91.8 µM (≈ 31.3 µg/mL) | 91.8 µM (≈ 31.3 µg/mL) | 
4 | COc1ccc(C(=O)NN=Cc2cc(Br)cc(Br)c2O)cc1OC [Compound 4e, N'-(3,5-dibromo-2-hydroxybenzylidene)-3,4-dimethoxybenzohydrazide] | 68.7 µM (≈ 31.4 µg/mL) | 68.7 µM (≈ 31.4 µg/mL) | 68.7 µM (≈ 31.4 µg/mL) |  |  | 17.1 µM (≈ 7.85 µg/mL) | 34.2 µM (≈ 15.7 µg/mL) |  | moderate antimicrobial activity | 72.4 µM (≈ 33.2 µg/mL) | 137 µM (≈ 62.8 µg/mL) | 34.2 µM (≈ 15.7 µg/mL) | 137 µM (≈ 62.8 µg/mL) | 68.7 µM (≈ 31.4 µg/mL) | 17.1 µM (≈ 7.85 µg/mL) |  |  | MIC (C. albicans MTCC183; C. albicans (CA), read-out: MIC): 137 µM (≈ 62.8 µg/mL)
5 | CCCCCCCCCCCCOc1ccc(C=NNC(=O)c2ccc(OC)c(OC)c2)cc1 [Compound 4j, N'-(4-(dodecyloxy)benzylidene)-3,4-dimethoxybenzohydrazide] | 33.3 µM (≈ 15.6 µg/mL) |  | 66.8 µM (≈ 31.3 µg/mL) |  | 66.8 µM (≈ 31.3 µg/mL) | 33.3 µM (≈ 15.6 µg/mL) | 66.8 µM (≈ 31.3 µg/mL) | 267 µM (≈ 125 µg/mL) | moderate antimicrobial activity | 74.2 µM (≈ 34.7 µg/mL) | 16.7 µM (≈ 7.82 µg/mL) | 16.7 µM (≈ 7.82 µg/mL) | 134 µM (≈ 62.6 µg/mL) | 33.3 µM (≈ 15.6 µg/mL) | 66.8 µM (≈ 31.3 µg/mL) | 33.3 µM (≈ 15.6 µg/mL) |  | MBC (A. baumanii): 66.8 µM (≈ 31.3 µg/mL)
6 | COc1ccc(C(=O)NN=Cc2ccc(N)cc2)cc1OC [Compound 4a, N'-(4-aminobenzylidene)-3,4-dimethoxybenzohydrazide] | 52.1 µM (≈ 15.6 µg/mL) | 105 µM (≈ 31.3 µg/mL) | 105 µM (≈ 31.3 µg/mL) | 105 µM (≈ 31.3 µg/mL) | 105 µM (≈ 31.3 µg/mL) | 52.1 µM (≈ 15.6 µg/mL) | 26.1 µM (≈ 7.82 µg/mL) | 26.1 µM (≈ 7.82 µg/mL) | high antimicrobial activity | 58 µM (≈ 17.4 µg/mL) | 52.1 µM (≈ 15.6 µg/mL) | 105 µM (≈ 31.3 µg/mL) | 105 µM (≈ 31.3 µg/mL) | 52.1 µM (≈ 15.6 µg/mL) | 52.1 µM (≈ 15.6 µg/mL) | 105 µM (≈ 31.3 µg/mL) | 105 µM (≈ 31.3 µg/mL) | zones of inhibition (antifungal activity) (C. albicans [4]): best antifungal activity; MBC (C. albicans [5]): 105 µM (≈ 31.3 µg/mL); IC50 [3]: 407 µM
7 | CCOc1ccc(C=NNC(=O)c2ccc(OC)c(OC)c2)cc1 [Compound 4b, N'-(4-ethoxybenzylidene)-3,4-dimethoxybenzohydrazide] | 23.8 µM (≈ 7.82 µg/mL) |  |  | 95.4 µM (≈ 31.3 µg/mL) | 95.4 µM (≈ 31.3 µg/mL) | 47.5 µM (≈ 15.6 µg/mL) | 95.4 µM (≈ 31.3 µg/mL) | 95.4 µM (≈ 31.3 µg/mL) | weakest antimicrobial activity | 140 µM (≈ 46 µg/mL) | 381 µM (≈ 125 µg/mL) | 190 µM (≈ 62.6 µg/mL) | 381 µM (≈ 125 µg/mL) | 23.8 µM (≈ 7.82 µg/mL) | 23.8 µM (≈ 7.82 µg/mL) |  |  | MIC ([1]; 24 h): 23.3 µM (≈ 7.64 µg/mL); MIC (P. aeruginosa ATCC10145; ATCC10145, 24 h): 23.3 µM (≈ 7.64 µg/mL); MIC (E. coli ATCC 25922; ATCC25922, 24 h): 23.3 µM (≈ 7.64 µg/mL)
8 | COc1ccc(C(=O)NN=Cc2cc(C(C)(C)C)cc(C(C)(C)C)c2O)cc1OC [Compound 4g, N'-(3,5-di-tert-butyl-2-hydroxybenzylidene)-3,4-dimethoxybenzohydrazide] | 37.8 µM (≈ 15.6 µg/mL) |  | 75.9 µM (≈ 31.3 µg/mL) |  | 75.9 µM (≈ 31.3 µg/mL) | 37.8 µM (≈ 15.6 µg/mL) | 152 µM (≈ 62.5 µg/mL) | 37.8 µM (≈ 15.6 µg/mL) | moderate antimicrobial activity | 73.7 µM (≈ 30.4 µg/mL) | 18.9 µM (≈ 7.82 µg/mL) | 75.9 µM (≈ 31.3 µg/mL) | 152 µM (≈ 62.5 µg/mL) | 75.9 µM (≈ 31.3 µg/mL) | 75.9 µM (≈ 31.3 µg/mL) | 75.9 µM (≈ 31.3 µg/mL) |  | 
9 | COc1ccc(C(=O)NN=Cc2c(C)cc(C)cc2C)cc1OC [Compound 4d, N'-(2,4,6-trimethylbenzylidene)-3,4-dimethoxybenzohydrazide] | 96 µM (≈ 31.3 µg/mL) | 192 µM (≈ 62.5 µg/mL) |  |  | 192 µM (≈ 62.5 µg/mL) | 192 µM (≈ 62.5 µg/mL) | 47.8 µM (≈ 15.6 µg/mL) | 192 µM (≈ 62.5 µg/mL) | weakest antimicrobial activity | 149 µM (≈ 48.7 µg/mL) | 96 µM (≈ 31.3 µg/mL) | 192 µM (≈ 62.5 µg/mL) | 383 µM (≈ 125 µg/mL) | 96 µM (≈ 31.3 µg/mL) | 47.8 µM (≈ 15.6 µg/mL) | 192 µM (≈ 62.5 µg/mL) | 192 µM (≈ 62.5 µg/mL) | 

Reference: article PMC9037180, “Ligand-based design and synthesis of N'-Benzylidene-3,4-dimethoxybenzohydrazide derivatives as potential antimicrobial agents; evaluation by in vitro, in vivo, and in silico approaches with SAR studies” (Journal of Enzyme Inhibition and Medicinal Chemistry, 2022)
